Data reported in patent US8436014B2, “Solid forms of N-(4-(7-azabicyclo[2.2.1]heptan-7-yl)-2-(trifluorormethyl)phenyl)-4-oxo-5-(trifluoromethyl)-1,4-dihyroquinoline-3-carboxamide” (Vertex Pharmaceutical Incorporated, priority 2008, dated 2013).
pEC50: −log10 of the molar value.

Biological target: T1, ΔF508-CFTR (Homo sapiens, UniProt P13569, DEL508-508)
T1 construct: expressed in transfected cells
Test: Membrane potential optical assay for ΔF508-CFTR potentiation (FLIPR III, voltage sensing dyes)
Format: cell-based
Conditions: assay not named in the result sentence
Text: Membrane Potential Optical Methods for Assaying ΔF508-CFTR Modulation Properties of Compounds
The assay utilizes fluorescent voltage sensing dyes to measure changes in membrane potential using a fluorescent plate reader (e.g., FLIPR III, Molecular Devices, Inc.) as a readout for increase in functional ΔF508-CFTR in NIH 3T3 cells. The driving force for the response is the creation of a chloride ion gradient in conjunction with channel activation by a single liquid addition step after the cells have previously been treated with compounds and subsequently loaded with a voltage sensing dye.
To identify potentiators of ΔF508-CFTR, a double-addition HTS assay format was developed. This HTS assay utilizes fluorescent voltage sensing dyes to measure changes in membrane potential on the FLIPR III as a measurement for increase in gating (conductance) of ΔF508 CFTR in temperature-corrected ΔF508 CFTR NIH 3T3 cells. The driving force for the response is a Cl− ion gradient in conjunction with channel activation with forskolin in a single liquid addition step using a fluoresecent plate reader such as FLIPR III after the cells have previously been treated with potentiator compounds (or DMSO vehicle control) and subsequently loaded with a redistribution dye.
Solutions • Bath Solution #1: (in mM) NaCl 160, KCl 4.5, CaCl2 2, MgCl2 1, HEPES 10, pH 7.4 with NaOH. […]

T1 sequence (P13569 with tags, fused parts or gaps DEL508-508): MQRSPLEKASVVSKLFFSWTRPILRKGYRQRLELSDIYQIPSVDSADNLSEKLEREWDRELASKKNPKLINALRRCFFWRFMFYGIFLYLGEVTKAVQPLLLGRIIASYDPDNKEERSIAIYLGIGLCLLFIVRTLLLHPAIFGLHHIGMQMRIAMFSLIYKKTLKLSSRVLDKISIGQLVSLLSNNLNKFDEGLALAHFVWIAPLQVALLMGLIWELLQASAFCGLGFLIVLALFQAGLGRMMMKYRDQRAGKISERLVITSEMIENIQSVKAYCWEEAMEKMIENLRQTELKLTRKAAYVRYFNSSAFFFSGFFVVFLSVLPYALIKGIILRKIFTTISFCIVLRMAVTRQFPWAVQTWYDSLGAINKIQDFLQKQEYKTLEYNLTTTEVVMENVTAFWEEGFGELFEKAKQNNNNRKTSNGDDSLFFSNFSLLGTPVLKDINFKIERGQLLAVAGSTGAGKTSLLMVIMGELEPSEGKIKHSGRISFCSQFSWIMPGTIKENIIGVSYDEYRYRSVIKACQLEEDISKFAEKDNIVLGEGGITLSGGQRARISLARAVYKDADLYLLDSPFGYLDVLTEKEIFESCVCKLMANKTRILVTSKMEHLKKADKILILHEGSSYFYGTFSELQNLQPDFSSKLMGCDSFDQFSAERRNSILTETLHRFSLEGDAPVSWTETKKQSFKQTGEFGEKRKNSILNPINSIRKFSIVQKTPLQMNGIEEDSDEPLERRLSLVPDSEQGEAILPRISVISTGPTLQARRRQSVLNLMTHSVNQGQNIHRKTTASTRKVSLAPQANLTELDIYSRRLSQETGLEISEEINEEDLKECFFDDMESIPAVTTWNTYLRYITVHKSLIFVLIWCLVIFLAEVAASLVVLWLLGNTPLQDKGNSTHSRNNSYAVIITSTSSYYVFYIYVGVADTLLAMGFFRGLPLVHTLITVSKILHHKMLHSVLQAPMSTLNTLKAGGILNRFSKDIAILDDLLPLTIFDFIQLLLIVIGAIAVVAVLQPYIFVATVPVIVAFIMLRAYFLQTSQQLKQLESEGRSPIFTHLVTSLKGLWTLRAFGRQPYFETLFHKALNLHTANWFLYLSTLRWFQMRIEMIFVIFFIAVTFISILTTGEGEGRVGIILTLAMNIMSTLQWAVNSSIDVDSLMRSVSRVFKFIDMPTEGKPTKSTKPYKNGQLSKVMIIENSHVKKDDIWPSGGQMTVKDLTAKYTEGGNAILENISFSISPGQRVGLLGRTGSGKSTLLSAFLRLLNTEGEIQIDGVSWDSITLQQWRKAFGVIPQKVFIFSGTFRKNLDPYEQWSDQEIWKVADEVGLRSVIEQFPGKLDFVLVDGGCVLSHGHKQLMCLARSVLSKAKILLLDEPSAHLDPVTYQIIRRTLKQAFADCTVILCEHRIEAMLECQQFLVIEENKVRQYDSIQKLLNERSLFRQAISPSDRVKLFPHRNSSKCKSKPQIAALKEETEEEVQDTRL

## O=C(Nc1ccc(N2C3CCC2CC3)cc1C(F)(F)F)c1c[nH]c2cccc(C(F)(F)F)c2c1=O [Compound 1 Form A, N-(4-(7-azabicyclo[2.2.1]heptan-7-yl)-2-(trifluoromethyl)phenyl)-4-oxo-5-(trifluoromethyl)-1,4-dihydroquinoline-3-carboxamide]
  pEC50: > 5.70
